Experimental data from ChEMBL document CHEMBL4295262, “Evaluation of the utility of stem-cell derived cardiomyocytes for drug proarrhythmic potential” (2019).
Blank lines part the entries; values can stand above or below the compound they belong to.

Columns and labels:
[1] = (§1) Electrical activity assay on cell lines treated with a given drug. DMSO was used as a vehicle and a control, unblinded dofetilide was used as a control.; conditions: human, ipsc-cm
[2] = as §1; format: cell-based; parameters: APDc: unit not given here; conditions: human, ipsc-cm
[3] = as §1; format: ADME, cell-based; parameters: FPDc: unit not given here; conditions: human, ipsc-cm
[4] = as §1; format: ADME, cell-based; conditions: human, ipsc-cm, 0.005 µM; concentration (um) 0.005 uM
[5] = as §1; conditions: human, ipsc-cm; remark: listed apart in the source
[6] = as §1; conditions: human, ipsc-cm; remark: listed apart in the source
[7] = as §1; format: ADME, cell-based; parameters: FPDc: unit not given here; conditions: human, ipsc-cm, 0.003 µM; concentration (um) 0.003 uM
[8] = as §1; format: ADME, cell-based; conditions: human, ipsc-cm, 0.003 µM; concentration (um) 0.003 uM
[9] = as §1; conditions: human, ipsc-cm, 0.003 µM
[10] = 0.0003169 µM, concentration (um) 0.000316912 uM
[11] = 0.001001 µM, concentration (um) 0.00100144 uM
[12] = 0.003165 µM, concentration (um) 0.00316456 uM
[13] = 0.005 µM, concentration (um) 0.005 uM
[14] = 0.001 µM, concentration (um) 0.001 uM
[15] = 0.0032 µM, concentration (um) 0.0032 uM
[16] = 0.01 µM, concentration (um) 0.01 uM
[17] = 0.0001 µM, concentration (um) 0.0001 uM
[18] = 0.1 µM, concentration (um) 0.1 uM
[19] = 3.169 µM, concentration (um) 3.16912 uM
[20] = 10.01 µM, concentration (um) 10.0144 uM
[21] = 31.65 µM, concentration (um) 31.6456 uM
[22] = 100 µM, concentration (um) 100 uM

APDc [2, 10]: 62.54
FPD measurement [2, 10]: 62.54 FPDc
APDc [2, 11]: 77.55
FPD measurement [2, 11]: 77.55 FPDc
APDc [2, 12]: 79.29
FPD measurement [2, 12]: 79.29 FPDc
APDc [2, 13]: 61.92
FPD measurement [2, 13]: 61.92 FPDc
FPDc ([3]; 0.0003 µM, concentration (um) 0.0003 uM): 0.03867
FPDc [3, 14]: 0.04061
FPDc ([3]; 0.003 µM, concentration (um) 0.003 uM): 0.05119
FPD measurement [4]: 59.84 FPDc
FPDc ([5]; 0.0003169 µM): 74.54
FPDc ([5]; 0.001001 µM): 77.51
FPDc ([5]; 0.003 µM): 91.98
FPDc ([5]; 0.003165 µM): 81.19
FPD measurement ([6]; 0.0003169 µM): 57.26 FPDc
FPDc ([6]; 0.0003169 µM): 57.26
FPD measurement ([6]; 0.001001 µM): 62.9 FPDc
FPDc ([6]; 0.001001 µM): 62.9
FPD measurement ([6]; 0.003 µM): 58.92 FPDc
FPDc ([6]; 0.003 µM): 58.92
FPD measurement ([6]; 0.003165 µM): 74.44 FPDc
FPDc ([6]; 0.003165 µM): 74.44
FPD measurement ([6]; 0.0033 µM): 77.41 FPDc
FPDc ([6]; 0.0033 µM): 77.41
FPDc [7]: 32.45
APDc [9]: 63.81
FPD measurement [9]: 63.81 FPDc
Structure (SMILES): CN(CCOc1ccc(NS(C)(=O)=O)cc1)CCc1ccc(NS(C)(=O)=O)cc1 [DOFETILIDE]
FPD measurement ([1]; 0.0003169 µM): 1 Values Out Of 1 Were Excluded Due To Quiescence Or 0 Fpdc
FPDc ([1]; 0.0003169 µM): 1 Values Out Of 1 Were Excluded Due To Quiescence Or 0 Fpdc
FPD measurement ([1]; 0.001001 µM): 1 Values Out Of 1 Were Excluded Due To Quiescence Or 0 Fpdc
FPDc ([1]; 0.001001 µM): 1 Values Out Of 1 Were Excluded Due To Quiescence Or 0 Fpdc
FPD measurement ([1]; 0.003165 µM): 1 Values Out Of 1 Were Excluded Due To Quiescence Or 0 Fpdc
FPDc ([1]; 0.003165 µM): 1 Values Out Of 1 Were Excluded Due To Quiescence Or 0 Fpdc
FPD measurement ([1]; 0.01 µM): 1 Values Out Of 1 Were Excluded Due To Quiescence Or 0 Fpdc
FPDc ([1]; 0.01 µM): 1 Values Out Of 1 Were Excluded Due To Quiescence Or 0 Fpdc
FPD measurement [3, 15]: More Than Half The Wells Had A Quiescence Event Or Fpdc Readings Of 0
FPDc [3, 15]: More Than Half The Wells Had A Quiescence Event Or Fpdc Readings Of 0
FPD measurement [3, 16]: More Than Half The Wells Had A Quiescence Event Or Fpdc Readings Of 0
FPDc [3, 16]: More Than Half The Wells Had A Quiescence Event Or Fpdc Readings Of 0
FPDc [4]: 24 Values Out Of 24 Were Excluded Due To Quiescence Or 0 Fpdc
FPD measurement ([5]; 0.0003169 µM): 5 Values Out Of 5 Were Excluded Due To Quiescence Or 0 Apdc
FPD measurement ([5]; 0.001001 µM): 5 Values Out Of 5 Were Excluded Due To Quiescence Or 0 Apdc
FPD measurement ([5]; 0.003165 µM): 5 Values Out Of 5 Were Excluded Due To Quiescence Or 0 Apdc
FPD measurement ([5]; 0.01 µM): 5 Values Out Of 5 Were Excluded Due To Quiescence Or 0 Apdc
FPDc ([5]; 0.01 µM): More Than Half The Wells Had A Quiescence Event Or Fpdc Readings Of 0
FPD measurement ([6]; 0.01 µM): More Than Half The Wells Had A Quiescence Event Or Fpdc Readings Of 0
FPDc ([6]; 0.01 µM): More Than Half The Wells Had A Quiescence Event Or Fpdc Readings Of 0
FPD measurement [8]: More Than Half The Wells Had A Quiescence Event Or Apdc Readings Of 0
FPDc [8]: More Than Half The Wells Had A Quiescence Event Or Fpdc Readings Of 0

APDc [2, 17]: 43.63
FPD measurement [2, 17]: 43.63 FPDc
APDc [2, 14]: 43.37
FPD measurement [2, 14]: 43.37 FPDc
APDc [2, 16]: 124.5
FPD measurement [2, 16]: 124.5 FPDc
FPDc [3, 17]: 0.0175
FPDc [3, 14]: 0.01997
FPDc [3, 16]: 0.0289
FPDc ([5]; 0.0001 µM): 68.56
FPDc ([5]; 0.001 µM): 62.64
FPD measurement ([6]; 0.0001 µM): 56.72 FPDc
FPDc ([6]; 0.0001 µM): 56.72
FPD measurement ([6]; 0.001 µM): 63.97 FPDc
FPDc ([6]; 0.001 µM): 63.97
Structure (SMILES): CCCCCCCN(CC)CCCC(O)c1ccc(NS(C)(=O)=O)cc1 (centres undefined) [IBUTILIDE]
FPD measurement ([1]; 0.0001 µM): 1 Values Out Of 1 Were Excluded Due To Quiescence Or 0 Fpdc
FPDc ([1]; 0.0001 µM): 1 Values Out Of 1 Were Excluded Due To Quiescence Or 0 Fpdc
FPD measurement ([1]; 0.001 µM): 1 Values Out Of 1 Were Excluded Due To Quiescence Or 0 Fpdc
FPDc ([1]; 0.001 µM): 1 Values Out Of 1 Were Excluded Due To Quiescence Or 0 Fpdc
FPD measurement ([1]; 0.01 µM): 1 Values Out Of 1 Were Excluded Due To Quiescence Or 0 Fpdc
FPDc ([1]; 0.01 µM): 1 Values Out Of 1 Were Excluded Due To Quiescence Or 0 Fpdc
FPD measurement ([1]; 0.1 µM): 1 Values Out Of 1 Were Excluded Due To Quiescence Or 0 Fpdc
FPDc ([1]; 0.1 µM): 1 Values Out Of 1 Were Excluded Due To Quiescence Or 0 Fpdc
FPD measurement [3, 18]: More Than Half The Wells Had A Quiescence Event Or Fpdc Readings Of 0
FPDc [3, 18]: More Than Half The Wells Had A Quiescence Event Or Fpdc Readings Of 0
FPD measurement ([5]; 0.0001 µM): 5 Values Out Of 5 Were Excluded Due To Quiescence Or 0 Apdc
FPD measurement ([5]; 0.001 µM): 5 Values Out Of 5 Were Excluded Due To Quiescence Or 0 Apdc
FPD measurement ([5]; 0.01 µM): 5 Values Out Of 5 Were Excluded Due To Quiescence Or 0 Apdc
FPDc ([5]; 0.01 µM): 5 Values Out Of 5 Were Excluded Due To Quiescence Or 0 Fpdc
FPD measurement ([5]; 0.1 µM): More Than Half The Wells Had A Quiescence Event Or Apdc Readings Of 0
FPDc ([5]; 0.1 µM): More Than Half The Wells Had A Quiescence Event Or Fpdc Readings Of 0
FPD measurement ([6]; 0.01 µM): More Than Half The Wells Had A Quiescence Event Or Fpdc Readings Of 0
FPDc ([6]; 0.01 µM): More Than Half The Wells Had A Quiescence Event Or Fpdc Readings Of 0
FPD measurement ([6]; 0.1 µM): More Than Half The Wells Had A Quiescence Event Or Fpdc Readings Of 0
FPDc ([6]; 0.1 µM): More Than Half The Wells Had A Quiescence Event Or Fpdc Readings Of 0

APDc [2, 19]: 42.47
FPD measurement [2, 19]: 42.47 FPDc
APDc [2, 20]: 43.54
FPD measurement [2, 20]: 43.54 FPDc
APDc [2, 21]: 43.18
FPD measurement [2, 21]: 43.18 FPDc
APDc [2, 22]: 55.84
FPD measurement [2, 22]: 55.84 FPDc
FPDc [3, 19]: 0.03359
FPDc [3, 20]: 0.03613
FPDc [3, 21]: 0.03258
FPDc ([5]; 3.169 µM): 61.11
FPDc ([5]; 10.01 µM): 74.38
FPDc ([5]; 31.65 µM): 72.23
FPDc ([5]; 100 µM): 68
FPD measurement ([6]; 3.169 µM): 54.76 FPDc
FPDc ([6]; 3.169 µM): 54.76
FPD measurement ([6]; 10.01 µM): 55.07 FPDc
FPDc ([6]; 10.01 µM): 55.07
FPD measurement ([6]; 31.65 µM): 53.88 FPDc
FPDc ([6]; 31.65 µM): 53.88
FPD measurement ([6]; 100 µM): 71.03 FPDc
FPDc ([6]; 100 µM): 71.03
Structure (SMILES): COCCc1ccc(OCC(O)CNC(C)C)cc1 (centres undefined) [METOPROLOL]
FPD measurement ([1]; 3.169 µM): 1 Values Out Of 1 Were Excluded Due To Quiescence Or 0 Fpdc
FPDc ([1]; 3.169 µM): 1 Values Out Of 1 Were Excluded Due To Quiescence Or 0 Fpdc
FPD measurement ([1]; 10.01 µM): 1 Values Out Of 1 Were Excluded Due To Quiescence Or 0 Fpdc
FPDc ([1]; 10.01 µM): 1 Values Out Of 1 Were Excluded Due To Quiescence Or 0 Fpdc
FPD measurement ([1]; 31.65 µM): 1 Values Out Of 1 Were Excluded Due To Quiescence Or 0 Fpdc
FPDc ([1]; 31.65 µM): 1 Values Out Of 1 Were Excluded Due To Quiescence Or 0 Fpdc
FPD measurement ([1]; 100 µM): 1 Values Out Of 1 Were Excluded Due To Quiescence Or 0 Fpdc
FPDc ([1]; 100 µM): 1 Values Out Of 1 Were Excluded Due To Quiescence Or 0 Fpdc
FPD measurement [3, 22]: More Than Half The Wells Had A Quiescence Event Or Fpdc Readings Of 0
FPDc [3, 22]: More Than Half The Wells Had A Quiescence Event Or Fpdc Readings Of 0
